Source: patent publication US4272437A, “Antibacterial agents, and 4-thio azetidinone intermediates” (priority 1979, dated 1981)

Tests used:
Str. pneumoniae A-9585 = assay: MIC, tube dilution, Streptococcus pneumoniae A9585; type: cell-based; settings: overnight 37° C., Nutrient Broth; for Minimum Inhibitory Concentration (M.I.C.): Str. pneumoniae A9585
Excerpt: (§1) Representative compounds of the present invention were subjected to in vitro antibiotic screening against a variety of microorganisms.

Str. pyogenes A-9604 = assay: MIC, tube dilution, Streptococcus pyogenes A9604; type: cell-based; settings: Str. pyogenes A9604; overnight 37° C., Nutrient Broth
Excerpt: as §1

Staph. aureus A-9537 = assay: MIC, tube dilution, Staphylococcus aureus A9537; type: cell-based; settings: overnight 37° C., Nutrient Broth; for Minimum Inhibitory Concentration (M.I.C.): Staph. aureus A9537; for MIC: Staphylococcus aureus, A9537, Staph. aureus A9537, read-out: Minimum Inhibitory Concentration (M.I.C.)
Excerpt: as §1

[1] = system: Staph. aureus A-9537 and 50% serum; assay: MIC, tube dilution, Staph. aureus A9537 + 50% serum; type: cell-based, Staphylococcus aureus; settings: overnight 37° C.; for MIC: Staphylococcus aureus, read-out: Minimum Inhibitory Concentration (M.I.C.)
Excerpt: as §1

[2] = system: Staph. aureus (Pen-Res) A-9606; assay: MIC, tube dilution, Staphylococcus aureus A9606 (Pen-Res); type: cell-based; settings: overnight 37° C.; for Minimum Inhibitory Concentration (M.I.C.): Staph. aureus A9606 (Pen-Res); for MIC: Staphylococcus aureus, read-out: Minimum Inhibitory Concentration (M.I.C.), Staph. aureus A9606 (Pen-Res)
Excerpt: as §1

E. coli A-15119 = assay: MIC, tube dilution, Escherichia coli A15119; type: cell-based; settings: overnight 37° C.; for Minimum Inhibitory Concentration (M.I.C.): E. coli A15119; for MIC: Escherichia coli, A15119, E. coli A15119, read-out: Minimum Inhibitory Concentration (M.I.C.)
Excerpt: as §1

K. pneumoniae A-15130 = assay: MIC, tube dilution, Klebsiella pneumoniae A15130; type: cell-based; settings: overnight 37° C.; for Minimum Inhibitory Concentration (M.I.C.): K. pneumoniae A15130; for MIC: Klebsiella pneumoniae, A15130, K. pneumoniae A15130, read-out: Minimum Inhibitory Concentration (M.I.C.)
Excerpt: as §1

[3] = system: Klebsiella species A20468; assay: MIC, tube dilution, Klebsiella species A20468; type: cell-based; settings: Klebsiella species (K. pneumoniae) A20468, overnight 37° C.; for MIC: read-out: Minimum Inhibitory Concentration (M.I.C.)
Excerpt: as §1

Pr. mirabilis A-9900 = assay: MIC, tube dilution, Proteus mirabilis A9900; type: cell-based; settings: overnight 37° C.; for Minimum Inhibitory Concentration (M.I.C.): Proteus mirabilis A9900; for MIC: Proteus mirabilis, A9900, Proteus mirabilis A9900, read-out: Minimum Inhibitory Concentration (M.I.C.)
Excerpt: as §1

Pr. vulgaris A-9716 = assay: MIC, tube dilution, Proteus vulgaris / Proteus mirabilis A9716; type: cell-based, Proteus vulgaris (name changed to Proteus mirabilis); settings: overnight 37° C.; for Minimum Inhibitory Concentration (M.I.C.): Proteus vulgaris / Proteus mirabilis A9716; for MIC: Proteus vulgaris, A9716, read-out: Minimum Inhibitory Concentration (M.I.C.), Proteus vulgaris / Proteus mirabilis A9716
Excerpt: as §1

Pr. morganii A-15153 = assay: MIC, tube dilution, Proteus morganii A15153; type: cell-based; settings: overnight 37° C.; for Minimum Inhibitory Concentration (M.I.C.): Proteus morganii A15153; for MIC: Morganella morganii, A15153, Proteus morganii A15153, read-out: Minimum Inhibitory Concentration (M.I.C.)
Excerpt: as §1

[4] = system: Providencia stuartii A21205; assay: MIC, tube dilution, Providencia stuartii (Pr. rettgeri) A21205; type: cell-based; settings: for MIC: Providencia stuartii, A21205, read-out: Minimum Inhibitory Concentration (M.I.C.)
Excerpt: as §1

Ser. marcescens A-20019 = assay: MIC, tube dilution, Serratia marcescens A20019; type: cell-based; settings: overnight 37° C.; for Minimum Inhibitory Concentration (M.I.C.): Serratia marcescens A20019; for MIC: Serratia marcescens, A20019, Serratia marcescens A20019, read-out: Minimum Inhibitory Concentration (M.I.C.)
Excerpt: as §1

Ent. cloacae A-9659 = assay: MIC, tube dilution, Enterobacter cloacae A9659; type: cell-based; settings: overnight 37° C.; for Minimum Inhibitory Concentration (M.I.C.): Enterobacter cloacae A9659; for MIC: Enterobacter cloacae, A9659, Enterobacter cloacae A9659, read-out: Minimum Inhibitory Concentration (M.I.C.)
Excerpt: as §1

Ent. cloacae A-9656 = assay: MIC, tube dilution, Enterobacter cloacae A9656; type: cell-based; settings: Enterobacter cloacae A9656, overnight 37° C.; for MIC: read-out: Minimum Inhibitory Concentration (M.I.C.)
Excerpt: as §1

[5] = system: Staph. aureus (Meth-Res) A-15097; assay: MIC, tube dilution, Staphylococcus aureus A15097 (Meth-Res); type: cell-based; settings: Staphylococcus aureus, read-out: Minimum Inhibitory Concentration (M.I.C.), Staph. aureus A15097 (Meth-Res); overnight 37° C.
Excerpt: as §1

Str. faecalis A-20688 = assay: MIC, tube dilution, Streptococcus faecalis A20688; type: cell-based; settings: Enterococcus faecalis, A20688, Str. faecalis A20688; overnight 37° C.; read-out: Minimum Inhibitory Concentration (M.I.C.)
Excerpt: as §1

E. coli A-20341-1 = assay: MIC, tube dilution, Escherichia coli A20341-1; type: cell-based; settings: Escherichia coli, A203411; E. coli A20341-1; overnight 37° C.; read-out: Minimum Inhibitory Concentration (M.I.C.)
Excerpt: as §1

Ps. aeruginosa A-9843A = assay: MIC, tube dilution, Pseudomonas aeruginosa A9843A; type: cell-based; settings: Pseudomonas aeruginosa, A9843A, read-out: Minimum Inhibitory Concentration (M.I.C.), Pseudomonas aeruginosa A9843A; overnight 37° C.
Excerpt: as §1

Ps. aeruginosa A-21213 = assay: MIC, tube dilution, Pseudomonas aeruginosa A21213; type: cell-based; settings: Pseudomonas aeruginosa A21213; overnight 37° C.; read-out: Minimum Inhibitory Concentration (M.I.C.)
Excerpt: as §1

Compound | Minimum Inhibitory Concentration (M.I.C.) (Str. pneumoniae A-9585) | Minimum Inhibitory Concentration (M.I.C.) (Staph. aureus A-9537) | Minimum Inhibitory Concentration (M.I.C.) [2] | MIC [1] | MIC [2] | MIC [5] | MIC (Str. faecalis A-20688) | MIC (E. coli A-15119) | MIC (E. coli A-20341-1) | MIC (K. pneumoniae A-15130) | MIC [3] | MIC (Pr. mirabilis A-9900) | MIC (Pr. vulgaris A-9716) | MIC (Pr. morganii A-15153) | MIC [4] | MIC (Ser. marcescens A-20019) | MIC (Ent. cloacae A-9659) | MIC (Ent. cloacae A-9656) | MIC (Ps. aeruginosa A-9843A) | MIC (Ps. aeruginosa A-21213) | also measured
CC1=C(C(=O)O)N2C(=O)C[C@H]2S1 [Preparation 4(+), (+)-2-Methylpenem-3-carboxylic Acid] | 0.06 µg/mL | 0.5 µg/mL | 0.5 µg/mL |  |  |  |  |  |  |  |  |  |  |  |  |  |  |  |  |  | Minimum Inhibitory Concentration (M.I.C.) (Str. pyogenes A-9604): 0.25 µg/mL; Minimum Inhibitory Concentration (M.I.C.) [1]: 4 µg/mL; Minimum Inhibitory Concentration (M.I.C.) (E. coli A-15119): 4 µg/mL; Minimum Inhibitory Concentration (M.I.C.) (K. pneumoniae A-15130): 8 µg/mL; Minimum Inhibitory Concentration (M.I.C.) [3]: > 125 µg/mL; Minimum Inhibitory Concentration (M.I.C.) (Pr. mirabilis A-9900): 4 µg/mL; Minimum Inhibitory Concentration (M.I.C.) (Pr. vulgaris A-9716): 4 µg/mL; Minimum Inhibitory Concentration (M.I.C.) (Pr. morganii A-15153): 8 µg/mL; Minimum Inhibitory Concentration (M.I.C.) ([4]; Providencia stuartii (Pr. rettgeri) A21205, overnight 37° C.): 4 µg/mL; Minimum Inhibitory Concentration (M.I.C.) (Ser. marcescens A-20019): 4 µg/mL; Minimum Inhibitory Concentration (M.I.C.) (Ent. cloacae A-9659): 8 µg/mL; Minimum Inhibitory Concentration (M.I.C.) (Ent. cloacae A-9656): 8 µg/mL
CC(=O)OCC1=C(C(=O)[O-])N2C(=O)C[C@H]2S1.[Na+] [Preparation 5, Sodium 2-(Acetoxymethyl)penem-3-carboxylate] | 16 µg/mL | > 125 µg/mL |  | > 63 µg/mL | > 125 µg/mL | > 125 µg/mL | > 125 µg/mL | > 125 µg/mL | > 125 µg/mL | > 125 µg/mL | > 125 µg/mL | > 125 µg/mL | > 125 µg/mL | > 125 µg/mL | > 125 µg/mL | > 125 µg/mL | > 125 µg/mL | > 125 µg/mL | > 125 µg/mL | > 125 µg/mL | MIC (Str. pneumoniae A-9585; Streptococcus pneumoniae, A9585, Str. pneumoniae A9585, read-out: Minimum Inhibitory Concentration (M.I.C.)): > 8 µg/mL; MIC (Staph. aureus A-9537): 125 µg/mL
O=C([O-])C1=C(c2ccccc2)S[C@@H]2CC(=O)N12.[Na+] [Preparation 7, Sodium 2-Phenylpenem-3-carboxylate] |  |  | 16 µg/mL | > 63 µg/mL | 8 µg/mL | 63 µg/mL | 16 µg/mL | 4 µg/mL | > 125 µg/mL | 63 µg/mL | > 125 µg/mL | 4 µg/mL | 4 µg/mL | 32 µg/mL | 16 µg/mL | 32 µg/mL | 32 µg/mL | 125 µg/mL | > 125 µg/mL | > 125 µg/mL | MIC (Staph. aureus A-9537): 2 µg/mL; Minimum Inhibitory Concentration (M.I.C.) (E. coli A-15119): 8 µg/mL; Minimum Inhibitory Concentration (M.I.C.) (K. pneumoniae A-15130): 125 µg/mL; Minimum Inhibitory Concentration (M.I.C.) (Pr. morganii A-15153): 63 µg/mL; Minimum Inhibitory Concentration (M.I.C.) (Ser. marcescens A-20019): 63 µg/mL; Minimum Inhibitory Concentration (M.I.C.) (Ent. cloacae A-9659): 63 µg/mL
CCCCCC1=C(C(=O)[O-])N2C(=O)C[C@H]2S1.[K+] [Preparation 16, Potassium 2-Pentylpenem-3-carboxylate] |  |  |  | > 63 µg/mL | 4 µg/mL | 125 µg/mL | 32 µg/mL | 63 µg/mL | > 125 µg/mL | > 125 µg/mL | > 125 µg/mL | 4 µg/mL | 4 µg/mL | 16 µg/mL | 16 µg/mL | 125 µg/mL | > 125 µg/mL | 125 µg/mL | > 125 µg/mL | > 125 µg/mL | Minimum Inhibitory Concentration (M.I.C.) (Pr. mirabilis A-9900): 8 µg/mL; Minimum Inhibitory Concentration (M.I.C.) (Pr. vulgaris A-9716): 8 µg/mL
